According to patent publication US8247211B2, “Glycopeptide antibiotics” (American Cyanamid Company, priority 2001, dated 2012):
In brackets after ≈: the same amount, converted by molar mass.

What was measured:
Test in all cases: In vitro antibacterial evaluation: minimum inhibitory concentration (MIC), broth dilution method
Type in all cases: cell-based
Escherichia coli = Escherichia coli (GC 4560); 18 hours at 35° C.
In short: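 Values are minimum inhibitory concentrations, meaning the smallest antibiotic concentration that stops growth of the organism. They come from broth dilution in Muller-Hinton II […] per NCCLS guidance (M7-A2), using 5×10^5 CFU/mL and concentrations from 64 to 0.06 μg/mL.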

Streptococcus sp. = conditions: 18 hours at 35° C.
In short: (§1)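 First, organisms are seeded at 5×10^5 CFU/mL into Muller-Hinton II […]. Next, antibiotic is applied across 64-0.06 μg/mL by broth dilution (NCCLS M7-A2). Finally, the lowest inhibitory concentration is recorded as MIC.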

Enterococcus sp. = conditions: 18 hours at 35° C.
In short: as §1

Staphylococcus sp. = system: Staphylococcus sp.
In short: as §1

[1] = broth dilution, inoculum 5×10^5 CFU/mL

MIC Escherichia coli (GC 4560) (Escherichia coli): 8 µg/mL (≈ 4.81 µM)
MIC Streptococcus agalactiae (GC 4564) (Streptococcus sp.; Streptococcus agalactiae (GC 4564)): 64 µg/mL (≈ 38.5 µM)
MIC Streptococcus pneumoniae (ATCC 6301) (Streptococcus sp.; Streptococcus pneumoniae (ATCC 6301)): 32 µg/mL (≈ 19.3 µM)
MIC Streptococcus pneumoniae (GC 1894) (Streptococcus sp.; Streptococcus pneumoniae (GC 1894)): 32 µg/mL (≈ 19.3 µM)
MIC Streptococcus pneumoniae (GC 4565) (Streptococcus sp.; Streptococcus pneumoniae (GC 4565)): 64 µg/mL (≈ 38.5 µM)
MIC Streptococcus pyogenes (GC 4563) (Streptococcus sp.; Streptococcus pyogenes (GC 4563)): 32 µg/mL (≈ 19.3 µM)
MIC Streptococcus agalactiae (GC 4564) (Streptococcus sp.; [1]): 64 µg/mL (≈ 38.5 µM)
MIC Streptococcus pneumoniae (ATCC 6301) (Streptococcus sp.; [1]): 32 µg/mL (≈ 19.3 µM)
MIC Streptococcus pneumoniae (GC 1894) (Streptococcus sp.; [1]): 32 µg/mL (≈ 19.3 µM)
MIC Streptococcus pneumoniae (GC 4565) (Streptococcus sp.; [1]): 64 µg/mL (≈ 38.5 µM)
MIC Streptococcus pyogenes (GC 4563) (Streptococcus sp.; [1]): 32 µg/mL (≈ 19.3 µM)
MIC Enterococcus avium (GC 4558) (Enterococcus sp.; Enterococcus avium (GC 4558)): 8 µg/mL (≈ 4.81 µM)
MIC Enterococcus faecalis (ATCC 29212) (Enterococcus sp.; Enterococcus faecalis (ATCC 29212)): 64 µg/mL (≈ 38.5 µM)
MIC Enterococcus faecalis (GC 2242) (Enterococcus sp.; Enterococcus faecalis (GC 2242)): 64 µg/mL (≈ 38.5 µM)
MIC Enterococcus faecalis (GC 2691) (Enterococcus sp.; Enterococcus faecalis (GC 2691)): 64 µg/mL (≈ 38.5 µM)
MIC Enterococcus faecalis (GC 4552) (Enterococcus sp.; Enterococcus faecalis (GC 4552)): 64 µg/mL (≈ 38.5 µM)
MIC Enterococcus faecalis (GC 4553) (Enterococcus sp.; Enterococcus faecalis (GC 4553)): 8 µg/mL (≈ 4.81 µM)
MIC Enterococcus faecalis (GC 6189) (Enterococcus sp.; Enterococcus faecalis (GC 6189)): 64 µg/mL (≈ 38.5 µM)
MIC Enterococcus faecium (GC 2243) (Enterococcus sp.; Enterococcus faecium (GC 2243)): 32 µg/mL (≈ 19.3 µM)
MIC Enterococcus faecium (GC 4556) (Enterococcus sp.; Enterococcus faecium (GC 4556)): 64 µg/mL (≈ 38.5 µM)
MIC Enterococcus faecium (GC 4557) (Enterococcus sp.; Enterococcus faecium (GC 4557)): 8 µg/mL (≈ 4.81 µM)
MIC Enterococcus avium (GC 4558) (Enterococcus sp.; [1]): 8 µg/mL (≈ 4.81 µM)
MIC Enterococcus faecalis (ATCC 29212) (Enterococcus sp.; [1]): 64 µg/mL (≈ 38.5 µM)
MIC Enterococcus faecalis (GC 2242) (Enterococcus sp.; [1]): 64 µg/mL (≈ 38.5 µM)
MIC Enterococcus faecalis (GC 2691) (Enterococcus sp.; [1]): 64 µg/mL (≈ 38.5 µM)
MIC Enterococcus faecalis (GC 4552) (Enterococcus sp.; [1]): 64 µg/mL (≈ 38.5 µM)
MIC Enterococcus faecalis (GC 4553) (Enterococcus sp.; [1]): 8 µg/mL (≈ 4.81 µM)
MIC Enterococcus faecalis (GC 6189) (Enterococcus sp.; [1]): 64 µg/mL (≈ 38.5 µM)
MIC Enterococcus faecium (GC 2243) (Enterococcus sp.; [1]): 32 µg/mL (≈ 19.3 µM)
MIC Enterococcus faecium (GC 4556) (Enterococcus sp.; [1]): 64 µg/mL (≈ 38.5 µM)
MIC Enterococcus faecium (GC 4557) (Enterococcus sp.; [1]): 8 µg/mL (≈ 4.81 µM)
MIC Coagulase Negative Staphylococcus (GC 4547) (Staphylococcus sp.; strain GC 4547): 32 µg/mL (≈ 19.3 µM)
MIC Coagulase Negative Staphylococcus (GC 4548) (Staphylococcus sp.; strain GC 4548): 4 µg/mL (≈ 2.41 µM)
MIC Coagulase Negative Staphylococcus (GC 4549) (Staphylococcus sp.; strain GC 4549): 32 µg/mL (≈ 19.3 µM)
MIC Coagulase Negative Staphylococcus (GC 4551) (Staphylococcus sp.; strain GC 4551): 8 µg/mL (≈ 4.81 µM)
SMILES: CC(c1ccccc1)C1NC(=O)CNC(=O)C(CO)NC(=O)C(C(O)C2CN(c3nc4ccccc4o3)C(=N)N2C2OC(CO)C(O)C(O)C2O)NC(=O)C(C(O)C2CNC(=Nc3nc4ccccc4o3)N2)NC(=O)C(Cc2ccc(OC3OC(CO)C(OC4OC5COC6(OC5C(O)C4O)C4CC5CC(C4)CC6C5)C(O)C3O)cc2)NC1=O (stereo not drawn) [Example 227, Di-N-(2-(1,3-benzoxazolyl)-cyclo[glycyl-β-methylphenylalanyl-O-[4-O-[4,6-O-(2-adamantylidene)hexopyranosyl]hexopyranosyl]tyrosyl-3-[2-iminoimidazolidin-4-yl]seryl-3-β-hexopyranosyl-2-iminoimidazolidin-4-yl]serylseryl]]
MIC Staphylococcus haemolyticus (GC 4546) (Staphylococcus sp.; strain GC 4546): 64 µg/mL (≈ 38.5 µM)
